Experimental data taken from patent US20100227859A1, “TRICYCLIC COMPOUNDS AS MATRIX METALLOPROTEINASE INHIBITORS” (priority 2007, published 2010).

Biological target: purified human MMP-12 enzyme (Homo sapiens, UniProt P39900)
Test: MMP-12 FRET assay
Format: biochemical
Conditions: substrate 20 μM, room temperature
Method: Compounds according to the present teachings were tested in an MMP-12 FRET assay as follows. To each well of black polystyrene 96-well plate was added assay buffer (50 mM HEPES (pH 7.4), 100 mM NaCl, 5 mM CaCl2 and 0.005% Brij-35 (Polyoxyethyleneglycol dodecyl ether, Pierce cat#20150), purified human MMP-12 enzyme, and varied concentrations of test compounds (prepared by serial dilution of a stock solution in 100% DMSO). The plates were incubated at room temperature for 30 minutes. The enzymatic reactions were initiated by addition of a substrate, MCA-Pro-Leu-Gly-Leu-Dpa(DNP)-Ala-Arg, containing a fluorescent group (7-methoxycoumarin, MCA) and a 2,4-dinitrophenyl group (DNP), to a final concentration of 20 μM. The final DMSO concentration in the assay was 10%. The reaction was monitored for 30 minutes at room temperature and the initial rate of the cleavage reaction was determined using a fluorescence plate reader (λex: 325 nm, λem: 395 nm). Plots of the inhibitor concentration vs. the initial cleavage rate were fit to the following equation: y=Vmax*(1−(x^n/(K^n+x^n))), whereby x=inhibitor concentration, y=initial rate, Vmax=initial rate in the absence of inhibitor, n=slope factor, and K=IC50 for the inhibition curve.

Chain of purified human MMP-12 enzyme (P39900 106-470): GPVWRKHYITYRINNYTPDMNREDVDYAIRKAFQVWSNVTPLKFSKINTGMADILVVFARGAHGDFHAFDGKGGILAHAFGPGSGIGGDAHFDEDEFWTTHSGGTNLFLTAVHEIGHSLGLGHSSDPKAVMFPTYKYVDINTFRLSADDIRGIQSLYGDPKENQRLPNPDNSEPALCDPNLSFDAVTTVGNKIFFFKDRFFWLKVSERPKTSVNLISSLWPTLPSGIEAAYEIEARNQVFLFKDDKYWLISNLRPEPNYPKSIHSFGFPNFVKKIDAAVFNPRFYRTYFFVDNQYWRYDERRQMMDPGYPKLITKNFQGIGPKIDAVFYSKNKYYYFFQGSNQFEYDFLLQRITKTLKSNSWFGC

Question: Which IC50 does the source give for `COc1ccc2sc(-c3ccc4oc5cc(S(=O)(=O)N[C@H](C(=O)O)C(C)C)ccc5c4c3)nc2c1` [Compound 225, (S)-2-(8-(5-methoxybenzo[d]thiazol-2-yl)dibenzo[b,d]furan-3-sulfonamido)-3-methylbutanoic acid] here?
Answer: The IC50 was < 1.5 nM.

Question: How did the IC50 turn out when `CC(C)[C@H](NS(=O)(=O)c1ccc2c(c1)oc1ccc(-c3csc(Cl)n3)cc12)C(=O)O` [Compound 180, (S)-2-(8-(2-chlorothiazol-4-yl)dibenzo[b,d]furan-3-sulfonamido)-3-methylbutanoic acid] was run?
Answer: Its IC50 is < 1.5 nM.

Question: For `CC(C)[C@H](NS(=O)(=O)c1ccc2c(c1)oc1ccc(-c3ccoc3Cl)cc12)C(=O)O` [Compound 94, (S)-2-(8-(2-chlorofuran-3-yl)dibenzo[b,d]furan-3-sulfonamido)-3-methylbutanoic acid], which IC50 is on record?
Answer: Its IC50 is < 1.5 nM.

Question: For `CC(C)[C@H](NS(=O)(=O)c1ccc2c(c1)oc1cc(-c3sc(Cl)c(Cl)c3Cl)ccc12)C(=O)O` [Compound 86, (S)-3-methyl-2-(7-(3,4,5-trichlorothiophen-2-yl)dibenzo[b,d]furan-3-sulfonamido)butanoic acid], which IC50 is on record?
Answer: The IC50 was < 1.5 nM.

Question: `CCCc1ccc(-c2ccc3oc4cc(S(=O)(=O)N[C@H](C(=O)O)C(C)C)ccc4c3c2)s1` [Compound 197, (S)-3-methyl-2-(8-(5-propylthiophen-2-yl)dibenzo[b,d]furan-3-sulfonamido)butanoic acid] was tested. Which IC50 did it give?
Answer: The IC50 was < 1.5 nM.

Question: With `CC(C)[C@H](NS(=O)(=O)c1ccc2c(c1)oc1ccc(-c3nn[nH]n3)cc12)C(=O)O` [Compound 130, (S)-2-(8-(2H-tetrazol-5-yl)dibenzo[b,d]furan-3-sulfonamido)-3-methylbutanoic acid] as the compound, how does the IC50 read?
Answer: Its IC50 is 1900 nM.

Question: `CC(C)[C@H](NS(=O)(=O)c1ccc2c(c1)oc1ccc(-c3ccc4oc5ccccc5c4c3)cc12)C(=O)O` [Compound 195, (S)-2-(2,2′-bidibenzo[b,d]furan-7-sulfonamido)-3-methylbutanoic acid] was tested. Which IC50 did it give?
Answer: Its IC50 is 7.3 nM.

Question: Which IC50 does the source give for `CC(C)[C@@H](NS(=O)(=O)c1ccc2oc3cc(-c4ccco4)ccc3c2c1)C(=O)O` [Compound 98, (R)-2-(7-(furan-2-yl)dibenzo[b,d]furan-2-sulfonamido)-3-methylbutanoic acid] here?
Answer: The IC50 was < 1.5 nM.

Question: `CC(C)[C@H](NS(=O)(=O)c1ccc2c(c1)oc1ccc(-c3c(C(F)(F)F)n[nH]c3-c3ccccc3)cc12)C(=O)O` [Compound 206, (S)-3-methyl-2-(8-(5-phenyl-3-(trifluoromethyl)-1H-pyrazol-4-yl)dibenzo[b,d]furan-3-sulfonamido)butanoic acid] was tested. Which IC50 did it give?
Answer: Its IC50 is 110 nM.

Question: With `Cc1nc(-c2ccc3c(c2)oc2ccc(S(=O)(=O)N[C@@H](C(=O)O)C(C)C)cc23)no1` [Compound 139, (R)-3-methyl-2-(7-(5-methyl-1,2,4-oxadiazol-3-yl)dibenzo[b,d]furan-2-sulfonamido)butanoic acid] as the compound, how does the IC50 read?
Answer: Its IC50 is 9.2 nM.

Question: Which IC50 does the source give for `CC(C)[C@@H](NS(=O)(=O)c1ccc2c(c1)oc1ccc(-c3ccc4c(c3)C(C)(C)OC(=O)N4)cc12)C(=O)O` [Compound 1, (R)-2-(8-(4,4-dimethyl-2-oxo-2,4-dihydro-1H-benzo[d][1,3]oxazin-6-yl)dibenzo[b,d]furan-3-sulfonamido)-3-methylbutanoic acid] here?
Answer: Its IC50 is 11 nM.

Question: For `CC(C)[C@@H](NS(=O)(=O)c1ccc2sc3cc(-c4ccc(Cl)o4)ccc3c2c1)C(=O)O` [Compound 288, (R)-2-(7-(5-chlorofuran-2-yl)dibenzo[b,d]thiophene-2-sulfonamido)-3-methylbutanoic acid], which IC50 is on record?
Answer: Its IC50 is 110 nM.

Question: With `CC(C)[C@@H](NS(=O)(=O)c1ccc2oc3cc(-c4noc(-c5ccccc5)n4)ccc3c2c1)C(=O)O` [Compound 150, (R)-3-methyl-2-(7-(5-phenyl-1,2,4-oxadiazol-3-yl)dibenzo[b,d]furan-2-sulfonamido)butanoic acid] as the compound, how does the IC50 read?
Answer: Its IC50 is 5 nM.

Question: `CC(C)[C@H](NS(=O)(=O)c1ccc2c(c1)oc1ccc(-c3ccncc3)cc12)C(=O)O` [Compound 16, (S)-3-methyl-2-(8-(pyridin-4-yl)dibenzo[b,d]furan-3-sulfonamido)butanoic acid] was tested. Which IC50 did it give?
Answer: The IC50 was < 1.5 nM.

Question: Which IC50 does the source give for `Cc1nc(-c2ccccc2)sc1-c1ccc2c(c1)oc1ccc(S(=O)(=O)N[C@@H](C(=O)O)C(C)C)cc12` [Compound 176, (R)-3-methyl-2-(7-(4-methyl-2-phenylthiazol-5-yl)dibenzo[b,d]furan-2-sulfonamido)butanoic acid] here?
Answer: Its IC50 is 97 nM.

Question: With `CC(C)[C@H](NS(=O)(=O)c1ccc2c(c1)oc1ccc(-c3ccsc3Cl)cc12)C(=O)O` [Compound 34, (S)-2-(8-(2-chlorothiophen-3-yl)dibenzo[b,d]furan-3-sulfonamido)-3-methylbutanoic acid] as the compound, how does the IC50 read?
Answer: The IC50 was < 1.5 nM.

Question: With `CC(C)[C@H](NS(=O)(=O)c1ccc2c(c1)oc1ccc(-c3nc4cc(F)c(F)cc4s3)cc12)C(=O)O` [Compound 220, (S)-2-(8-(5,6-difluorobenzo[d]thiazol-2-yl)dibenzo[b,d]furan-3-sulfonamido)-3-methylbutanoic acid] as the compound, how does the IC50 read?
Answer: The IC50 was < 1.5 nM.

Question: How did the IC50 turn out when `Cc1nc(-c2ccccc2)sc1-c1ccc2oc3cc(S(=O)(=O)N[C@H](C(=O)O)C(C)C)ccc3c2c1` [Compound 163, (S)-3-methyl-2-(8-(4-methyl-2-phenylthiazol-5-yl)dibenzo[b,d]furan-3-sulfonamido)butanoic acid] was run?
Answer: Its IC50 is 170 nM.

Question: Which IC50 does the source give for `CC(C)[C@H](NS(=O)(=O)c1ccc2c(c1)oc1ccc(C#Cc3cncn3C)cc12)C(=O)O` [Compound 15, (S)-3-methyl-2-(8-((1-methyl-1H-imidazol-5-yl)ethynyl)dibenzo[b,d]furan-3-sulfonamido)butanoic acid] here?
Answer: The IC50 was < 1.5 nM.

Question: `Cc1onc(-c2ccccc2)c1-c1ccc2oc3cc(S(=O)(=O)N[C@H](C(=O)O)C(C)C)ccc3c2c1` [Compound 161, (S)-3-methyl-2-(8-(5-methyl-3-phenylisoxazol-4-yl)dibenzo[b,d]furan-3-sulfonamido)butanoic acid] was tested. Which IC50 did it give?
Answer: The IC50 was 82 nM.

Question: Which IC50 does the source give for `Cc1nc(CC(C)C)sc1-c1ccc2oc3cc(S(=O)(=O)N[C@H](C(=O)O)C(C)C)ccc3c2c1` [Compound 204, (S)-2-(8-(2-isobutyl-4-methylthiazol-5-yl)dibenzo[b,d]furan-3-sulfonamido)-3-methylbutanoic acid] here?
Answer: The IC50 was 13 nM.

Question: How did the IC50 turn out when `CC(C)[C@@H](NS(=O)(=O)c1ccc2oc3cc(-c4ccsc4)ccc3c2c1)C(=O)O` [Compound 97, (R)-3-methyl-2-(7-(thiophen-3-yl)dibenzo[b,d]furan-2-sulfonamido)butanoic acid] was run?
Answer: The IC50 was < 1.5 nM.

Question: `CC(C)[C@H](NS(=O)(=O)c1ccc2c(c1)oc1ccc(C(=N)N3CCCC3)cc12)C(=O)O` [Compound 127, (S)-2-(8-(imino(pyrrolidin-1-yl)methyl)dibenzo[b,d]furan-3-sulfonamido)-3-methylbutanoic acid] was tested. Which IC50 did it give?
Answer: Its IC50 is 175 nM.

Question: For `CC(C)[C@H](NS(=O)(=O)c1ccc2c(c1)oc1ccc(-c3ccco3)cc12)C(=O)O` [Compound 37, (S)-2-(8-(furan-2-yl)dibenzo[b,d]furan-3-sulfonamido)-3-methylbutanoic acid], which IC50 is on record?
Answer: Its IC50 is 1.9 nM.

Question: With `CC(C)[C@@H](NS(=O)(=O)c1ccc2oc3cc(-c4nc5c(F)c(F)c(F)cc5s4)ccc3c2c1)C(=O)O` [Compound 300, (R)-3-methyl-2-(7-(4,5,6-trifluorobenzo[d]thiazol-2-yl)dibenzo[b,d]furan-2-sulfonamido)butanoic acid] as the compound, how does the IC50 read?
Answer: Its IC50 is 51 nM.

Question: Which IC50 does the source give for `C/C=C\c1ccc2oc3cc(S(=O)(=O)N[C@H](C(=O)O)C(C)C)ccc3c2c1` [Compound 67, (S,Z)-3-methyl-2-(8-(prop-1-enyl)dibenzo[b,d]furan-3-sulfonamido)butanoic acid] here?
Answer: The IC50 was < 1.5 nM.

Question: How did the IC50 turn out when `CCCc1ccc(-c2ccc3c(c2)oc2ccc(S(=O)(=O)N[C@@H](C(=O)O)C(C)C)cc23)s1` [Compound 243, (R)-3-methyl-2-(7-(5-propylthiophen-2-yl)dibenzo[b,d]furan-2-sulfonamido)butanoic acid] was run?
Answer: The IC50 was 1.5 nM.

Question: How did the IC50 turn out when `CC(C)CCn1cc(-c2ccc3sc4cc(S(=O)(=O)N[C@H](C(=O)O)C(C)C)ccc4c3c2)cn1` [Compound 43, (S)-2-(8-(1-isopentyl-1H-pyrazol-4-yl)dibenzo[b,d]thiophene-3-sulfonamido)-3-methylbutanoic acid] was run?
Answer: The IC50 was 88 nM.

Question: For `COc1ncc(-c2ccc3oc4cc(S(=O)(=O)N[C@H](C(=O)O)C(C)C)ccc4c3c2)cn1` [Compound 153, (S)-2-(8-(2-methoxypyrimidin-5-yl)dibenzo[b,d]furan-3-sulfonamido)-3-methylbutanoic acid], which IC50 is on record?
Answer: The IC50 was < 1.5 nM.

Question: With `CC(C)[C@H](NS(=O)(=O)c1ccc2c(c1)oc1ccc(-c3ccc(C(F)(F)F)cc3)cc12)C(=O)O` [Compound 311, (S)-3-methyl-2-(8-(4-(trifluoromethyl)phenyl)dibenzo[b,d]furan-3-sulfonamido)butanoic acid] as the compound, how does the IC50 read?
Answer: The IC50 was 2 nM.

Question: `CC(C)[C@H](NS(=O)(=O)c1ccc2c(c1)oc1ccc(-c3noc(-c4ccc(C(F)(F)F)cc4)n3)cc12)C(=O)O` [Compound 271, (S)-3-methyl-2-(8-(5-(4-(trifluoromethyl)phenyl)-1,2,4-oxadiazol-3-yl)dibenzo[b,d]furan-3-sulfonamido)butanoic acid] was tested. Which IC50 did it give?
Answer: Its IC50 is 3.7 nM.

Question: Which IC50 does the source give for `CC(C)[C@H](NS(=O)(=O)c1ccc2c(c1)oc1ccc(C3=NCCN3)cc12)C(=O)O` [Compound 77, (S)-2-(8-(4,5-dihydro-1H-imidazol-2-yl)dibenzo[b,d]furan-3-sulfonamido)-3-methylbutanoic acid] here?
Answer: Its IC50 is 23 nM.

Question: `CCCn1cc(-c2ccc3c(c2)oc2ccc(S(=O)(=O)N[C@@H](C(=O)O)C(C)C)cc23)cn1` [Compound 171, (R)-3-methyl-2-(7-(1-propyl-1H-pyrazol-4-yl)dibenzo[b,d]furan-2-sulfonamido)butanoic acid] was tested. Which IC50 did it give?
Answer: Its IC50 is 3.9 nM.
